Results: ChEMBL document CHEMBL5506040, “Design of FK866-Based Degraders for Blocking the Nonenzymatic Functions of Nicotinamide Phosphoribosyltransferase” (J Med Chem, 2024)
Each block holds one compound with its values, some of them ahead of it. Activity calls are given as the source filed them. The calls are words filed in the database; no cut-off is given here.

Columns and labels:
[1] = target: T1, von Hippel-Lindau disease tumor suppressor/Nicotinamide phosphoribosyltransferase (Mus musculus) (UniProt Q99KQ4+P40338); assay: (§1) PROTAC activity at VHL/NAMPT in mouse CT26 cells assessed as induction of intracellular NAMPT degradation incubated for 24 hrs by Western blot analysis; assay type: cell-based
T1 sequence (P40338 whole entry, looked up): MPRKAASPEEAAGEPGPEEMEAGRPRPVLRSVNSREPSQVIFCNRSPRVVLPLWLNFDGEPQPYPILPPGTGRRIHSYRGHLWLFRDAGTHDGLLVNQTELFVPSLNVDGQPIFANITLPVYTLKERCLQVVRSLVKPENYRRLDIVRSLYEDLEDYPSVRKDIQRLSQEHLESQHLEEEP
T1 sequence (Q99KQ4 whole entry, looked up): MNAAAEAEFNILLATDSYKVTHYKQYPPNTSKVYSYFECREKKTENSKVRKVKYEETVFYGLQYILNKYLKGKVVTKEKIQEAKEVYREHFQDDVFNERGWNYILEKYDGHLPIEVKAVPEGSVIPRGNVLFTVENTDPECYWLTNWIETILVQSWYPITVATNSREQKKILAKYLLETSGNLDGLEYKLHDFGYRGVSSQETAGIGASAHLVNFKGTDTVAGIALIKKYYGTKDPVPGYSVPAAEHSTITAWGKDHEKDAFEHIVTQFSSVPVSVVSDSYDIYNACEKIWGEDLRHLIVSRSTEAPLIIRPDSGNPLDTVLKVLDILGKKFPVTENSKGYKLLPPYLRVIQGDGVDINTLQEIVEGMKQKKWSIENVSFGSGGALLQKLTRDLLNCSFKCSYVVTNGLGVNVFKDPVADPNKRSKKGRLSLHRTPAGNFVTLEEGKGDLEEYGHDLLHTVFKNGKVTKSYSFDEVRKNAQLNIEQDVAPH

[2] = target: von Hippel-Lindau disease tumor suppressor/Nicotinamide phosphoribosyltransferase (Mus musculus, UniProt Q99KQ4+P40338); assay: as §1; assay type: cell-based
von Hippel-Lindau disease tumor suppressor/Nicotinamide phosphoribosyltransferase (Mus musculus, UniProt Q99KQ4+P40338), sequence (Q99KQ4 whole entry): as the sequence (Q99KQ4 whole entry, looked up) above
von Hippel-Lindau disease tumor suppressor/Nicotinamide phosphoribosyltransferase (Mus musculus, UniProt Q99KQ4+P40338), sequence (P40338 whole entry): as the sequence (P40338 whole entry, looked up) above

[3] = target: T1, von Hippel-Lindau disease tumor suppressor/Nicotinamide phosphoribosyltransferase (Mus musculus); assay: PROTAC activity at VHL/NAMPT in mouse CT26 cells assessed as induction of extracellular NAMPT degradation incubated for 24 hrs by immunoblot analysis; assay type: cell-based; details: dose 0.1-5 µM
[4] = target: T1, von Hippel-Lindau disease tumor suppressor/Nicotinamide phosphoribosyltransferase (Mus musculus); assay: PROTAC activity at VHL/NAMPT in mouse CT26 cells assessed as induction of intracellular NAMPT degradation incubated for 24 hrs by immunoblot analysis; assay type: cell-based; details: dose 0.1-5 µM
[5] = Tmax in male Sprague-Dawley rat at 14 mg/kg, ip measured after 24 hrs by LC/MS-MS analysis; assay type: ADME, organism-based; details: in vivo
[6] = Cmax in male Sprague-Dawley rat at 14 mg/kg, ip measured after 24 hrs by LC/MS-MS analysis; assay type: ADME, organism-based; details: in vivo
[7] = AUC (0 to 24 hrs) in male Sprague-Dawley rat at 14 mg/kg, ip measured after 24 hrs by LC/MS-MS analysis; assay type: ADME, organism-based; details: in vivo
[8] = Half-life in male Sprague-Dawley rat at 14 mg/kg, ip measured after 24 hrs by LC/MS-MS analysis; assay type: ADME, organism-based; details: in vivo
[9] = Apparent volume of distribution during terminal phase in male Sprague-Dawley rat at 14 mg/kg, ip measured after 24 hrs by LC/MS-MS analysis; assay type: ADME, organism-based; details: in vivo, read-out: Vz/F
[10] = system: CT26; assay: Antitumor activity against mouse CT26 cells implanted in immunocompetent female BALB/c mouse model assessed as reduction in tumor growth at 20 mg/kg, ip administered for 30 days; assay type: functional, organism-based; details: time 30.0 day
[11] = system: CT26; assay: Antitumor activity against mouse CT26 cells implanted in immunocompetent female BALB/c mouse model assessed as reduction in tumor size at 20 mg/kg, ip administered for 30 days; assay type: functional, organism-based; details: time 30.0 day
[12] = Toxicity in immunocompetent female BALB/c mouse implanted with mouse CT26 cells assessed as body weight loss at 20 mg/kg, ip administered for 30 days; assay type: organism-based; details: in vivo, 720 h, time 30 day
[13] = Toxicity in immunocompetent BALB/c mouse implanted with mouse CT26 cells assessed as change in spleen size at 20 mg/kg, ip administered for 30 days relative to control group; assay type: organism-based; details: in vivo, 720 h, time 30 day
[14] = Toxicity in immunocompetent BALB/c mouse implanted with mouse CT26 cells assessed as decrease in spleen index at 20 mg/kg, ip administered for 30 days relative to FK866; assay type: organism-based; details: in vivo, 720 h, time 30 day
[15] = Toxicity in immunocompetent BALB/c mouse implanted with mouse CT26 cells assessed as effect on liver histopathology at 20 mg/kg, ip administered for 30 days by H and E staining based analysis; assay type: organism-based; details: in vivo, 720 h, time 30 day
[16] = system: CT26; assay: Antitumor activity against mouse CT26 cells implanted in immunocompetent female BALB/c mouse model assessed as reduction in IL-6 expression at 20 mg/kg, ip administered for 30 days by ELISA; assay type: functional, organism-based; details: time 30.0 day
[17] = system: CT26; assay: Antitumor activity against mouse CT26 cells implanted in immunocompetent female BALB/c mouse model assessed as reduction in TNF-alpha expression at 20 mg/kg, ip administered for 30 days by ELISA; assay type: functional, organism-based; details: time 30.0 day
[18] = system: CT26; assay: cells; details: Mus musculus, CT26, 72 h
Description: Cytotoxicity against mouse CT26 cells assessed as inhibition of cell growth incubated for 72 hrs by MTT assay

[19] = system: SK-OV-3; assay: cells; details: Homo sapiens, SK-OV-3, 72 h
Description: Cytotoxicity against human SK-OV-3 cells assessed as inhibition of cell growth incubated for 72 hrs by MTT assay

[20] = system: MIA PaCa-2; assay: cells; details: Homo sapiens, MIA PaCa-2, 72 h
Description: Cytotoxicity against human MIA PaCa-2 cells assessed as inhibition of cell growth incubated for 72 hrs by MTT assay

[21] = target: T2, von Hippel-Lindau disease tumor suppressor/Nicotinamide phosphoribosyltransferase (Homo sapiens, UniProt P43490+P40337); assay: PROTAC activity at VHL/NAMPT in human SK-OV-3 cells assessed as induction of intracellular NAMPT degradation incubated for 24 hrs by Western blot analysis relative to control; assay type: cell-based
T2 sequence (P43490 whole entry): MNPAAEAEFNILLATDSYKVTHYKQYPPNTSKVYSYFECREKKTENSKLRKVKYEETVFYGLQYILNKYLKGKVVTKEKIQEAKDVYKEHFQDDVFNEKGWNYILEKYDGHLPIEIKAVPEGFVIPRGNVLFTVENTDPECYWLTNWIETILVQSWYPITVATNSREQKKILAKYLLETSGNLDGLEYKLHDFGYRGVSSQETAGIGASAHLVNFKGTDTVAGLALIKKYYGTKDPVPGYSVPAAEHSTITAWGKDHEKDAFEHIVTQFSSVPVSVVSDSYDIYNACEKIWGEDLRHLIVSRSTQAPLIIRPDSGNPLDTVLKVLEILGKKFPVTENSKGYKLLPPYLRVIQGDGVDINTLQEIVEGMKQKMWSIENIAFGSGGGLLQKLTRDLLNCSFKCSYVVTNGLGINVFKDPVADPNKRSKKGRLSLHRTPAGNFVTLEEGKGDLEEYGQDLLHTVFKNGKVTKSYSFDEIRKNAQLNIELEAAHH
T2 sequence (P40337 whole entry): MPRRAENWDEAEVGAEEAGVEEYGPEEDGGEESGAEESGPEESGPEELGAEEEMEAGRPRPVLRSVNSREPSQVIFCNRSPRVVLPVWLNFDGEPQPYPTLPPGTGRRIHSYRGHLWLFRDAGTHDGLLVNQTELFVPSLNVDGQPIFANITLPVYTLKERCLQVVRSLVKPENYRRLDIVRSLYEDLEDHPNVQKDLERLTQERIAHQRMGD

[22] = target: T2, von Hippel-Lindau disease tumor suppressor/Nicotinamide phosphoribosyltransferase; assay: PROTAC activity at VHL/NAMPT in human MKN-45 cells assessed as induction of intracellular NAMPT degradation incubated for 24 hrs by Western blot analysis relative to control; assay type: cell-based
[23] = target: T1, von Hippel-Lindau disease tumor suppressor/Nicotinamide phosphoribosyltransferase (Mus musculus); assay: PROTAC activity at VHL/NAMPT in mouse CT26 cells assessed as induction of extracellular NAMPT degradation at 0.1 to 5 uM incubated for 24 hrs by Western blot analysis; assay type: cell-based; details: dose 0.1-5 µM
[24] = target: Nicotinamide phosphoribosyltransferase (Homo sapiens) (UniProt P43490); details: SK-OV-3, dose 100.0 nM, time 24.0 hrs
Nicotinamide phosphoribosyltransferase (Homo sapiens), sequence (P43490 whole entry, looked up): as the sequence (P43490 whole entry) above

[25] = Induction of NAMPT degradation in immunocompetent female BALB/c mouse implanted with mouse CT26 cells assessed as reduction in intracellular NAMPT level in tumor by measuring fold change at 20 mg/kg, ip administered for 30 days by Western blot analysis (reference value: 1.00); assay type: functional; details: time 30 day
[26] = Toxicity in immunocompetent BALB/c mouse implanted with mouse CT26 cells assessed as punctate necrosis in liver at 20 mg/kg, ip administered for 30 days by H and E staining based analysis; assay type: organism-based; details: in vivo, 720 h, time 30 day
[27] = target: Nicotinamide phosphoribosyltransferase (Mus musculus) (UniProt Q99KQ4); assay: Induction of NAMPT degradation in mouse CT26 cells at 0.1 to 5 uM incubated for 24 hrs by Western blot analysis; assay type: cell-based; details: dose 0.1-5 µM
Nicotinamide phosphoribosyltransferase (Mus musculus), sequence (Q99KQ4 whole entry, looked up): as the sequence (Q99KQ4 whole entry, looked up) above

- Activity [1]: Dose-Dependent Effect
- DC50 [2]: 520 nM
- Activity [3]: Dose-Dependent Effect
- Activity [4]: Dose-Dependent Effect
- Tmax [5]: 1 h
- Cmax [6]: 147 ng/mL
- AUC(0-t) at 24 h [7]: 919 ng·h/mL
- half-life [8]: 22 h
- Vd/F [9]: 0.483 L/kg
- IC50 [18]: 25800 nM
- IC50 [19]: 1020 nM
- IC50 [20]: 4 nM
SMILES: Cc1ncsc1-c1ccc([C@@H](C)NC(=O)[C@H]2C[C@H](O)CN2C(=O)[C@H](NC(=O)COCCOCCOCCNC(=O)c2ccc(C(=O)N3CCC(CCCCNC(=O)/C=C/c4cccnc4)CC3)cc2)C(C)(C)C)cc1
- Activity [10]: Active
- Activity [11]: Active
- Activity [12]: Non-Toxic
- Activity [13]: Non-Toxic
- Activity [14]: Toxic
- Activity [15]: Non-Toxic
- Activity [16]: Active
- Activity [17]: Active

- DC50 [21]: 25 nM
- DC50 [22]: 6.4 nM
- Activity [1]: Dose-Dependent Effect
- DC50 [2]: 920 nM
- Activity [23]: Active
- inhibition [24]: Active
- IC50 [18]: 23100 nM
- IC50 [19]: 890 nM
- IC50 [20]: 4 nM
SMILES: Cc1ncsc1-c1ccc([C@H](C)NC(=O)[C@@H]2C[C@@H](O)CN2C(=O)[C@@H](NC(=O)COCCOCCOCCOCCNC(=O)c2ccc(C(=O)N3CCC(CCCCNC(=O)/C=C/c4cccnc4)CC3)cc2)C(C)(C)C)cc1

- IC50 [18]: 39 nM
- IC50 [19]: 6 nM
SMILES: O=C(/C=C/c1cccnc1)NCCCCC1CCN(C(=O)c2ccccc2)CC1 [DAPORINAD]
- fold change (FC) [25]: 1.04
- Activity [12]: Non-Toxic
- Activity [13]: Toxic
- Activity [26]: Toxic

- IC50 [18]: > 100000 nM
- IC50 [19]: 9930 nM
SMILES: Cc1ncsc1-c1ccc([C@@H](C)NC(=O)[C@@H]2C[C@@H](O)CN2C(=O)[C@@H](NC(=O)COCCOCCOCCOCCNC(=O)c2ccc(CN3CCN(S(=O)(=O)c4ccc(NC(=S)NCc5cccnc5)cc4)CC3)cc2)C(C)(C)C)cc1

- Activity [27]: inactive
SMILES: Cc1ncsc1-c1ccc([C@H](C)NC(=O)[C@H]2C[C@H](O)CN2C(=O)[C@@H](NC(=O)COCCOCCOCCNC(=O)c2ccc(C(=O)N3CCC(CCCCNC(=O)/C=C/c4cccnc4)CC3)cc2)C(C)(C)C)cc1
